This passage reports MIC results from ChEMBL document CHEMBL3867489, “Design, synthesis, antibacterial activity and docking study of some new trimethoprim derivatives” (2016).

The test system of assay [1] is Escherichia coli. The assay can be described thus: Antibacterial activity against Escherichia coli by agar well diffusion method. The class given is functional. In general terms: In agar diffusion tests the substance spreads into inoculated agar from a disc or well.
The test system of assay [2] is Staphylococcus aureus. The assay can be described thus: Antibacterial activity against Staphylococcus aureus by agar well diffusion method. The class given is functional.

In brackets after ≈: the same amount, converted by molar mass.

Usually MIC stands for the lowest concentration found to suppress growth. Read a high MIC as a less susceptible organism.

Turning to `COc1cc(Cc2cnc(N)nc2/N=C/c2cccc(O)c2)cc(OC)c1O`, the MIC turned out to be 336 µM (≈ 128 µg/mL) in assay [1] and 672 µM (≈ 256 µg/mL) in assay [2].
The matching figures for `COc1cc(Cc2cnc(N)nc2N)cc(OC)c1OCC(=O)c1ccccc1`: 81.2 µM (≈ 32 µg/mL) and 81.2 µM (≈ 32 µg/mL).
Take `COc1ccc(COc2c(OC)cc(Cc3cnc(N)nc3N)cc2OC)cc1`: the values for the minimum inhibitory concentration (MIC) in assay [1] and in assay [2] were 4 µM (≈ 1.59 µg/mL) and 5 µM (≈ 1.98 µg/mL), respectively.
As for `COc1cc(Cc2cnc(N)nc2N)cc(OC)c1O` [4-HYDROXYTRIMETHOPRIM], the MIC in assay [1] turned out to be 48.2 µM (≈ 13.3 µg/mL); in assay [2] it was 24.1 µM (≈ 6.66 µg/mL).
For `COc1cc(Cc2cnc(N)nc2/N=C/c2ccc(Cl)cc2)cc(OC)c1O`, in that order: 535 µM (≈ 214 µg/mL) and 535 µM (≈ 214 µg/mL).
The matching figures for `COc1cc(Cc2cnc(N)nc2N)cc(OC)c1OCc1ccc([N+](=O)[O-])cc1`: 39 µM (≈ 16 µg/mL) and 32.3 µM (≈ 13.3 µg/mL).
On to `COc1cc(Cc2cnc(N)nc2N)cc(OC)c1OCc1ccc(C)cc1`, for which the MIC in assay [1] was 5 µM (≈ 1.9 µg/mL); in assay [2], 10 µM (≈ 3.8 µg/mL).
The matching figures for `COc1cc(Cc2cnc(N)nc2N)cc(OC)c1OCC(=O)c1ccc(C)cc1`: 15.5 µM (≈ 6.33 µg/mL) and 37.7 µM (≈ 15.4 µg/mL).
`COc1cc(Cc2cnc(N)nc2N)cc(OC)c1OCC(=O)c1ccc([N+](=O)[O-])cc1`: the minimal inhibitory concentration (MIC) in assay [1] and in assay [2] was 72.9 µM (≈ 32 µg/mL) throughout.
`COc1cc(Cc2cnc(N)nc2N)cc(OC)c1OCC(=O)c1ccc(Cl)cc1`: the minimum inhibitory concentration (MIC) in assay [1] and in assay [2] was 78.4 µM (≈ 33.6 µg/mL) throughout.
Turning to `COc1cc(Cc2cnc(N)nc2N)cc(OC)c1OCc1ccccc1`, the minimal inhibitory concentration (MIC) in assay [1] and in assay [2] was 18.2 µM (≈ 6.67 µg/mL) each time.
In the case of `COc1cc(Cc2cnc(N)nc2/N=C/c2ccc(O)cc2)cc(OC)c1O`, the MIC in assay [1] and in assay [2] was 672 µM (≈ 256 µg/mL) each time.
With `COc1ccc(C(=O)COc2c(OC)cc(Cc3cnc(N)nc3N)cc2OC)cc1`, the minimal inhibitory concentration (MIC) in assay [1] and in assay [2] was 18.7 µM (≈ 7.94 µg/mL) each time.
Consider `COc1cc(Cc2cnc(N)nc2N)cc(OC)c1OCc1ccc(Cl)cc1`, for which the minimum inhibitory concentration (MIC) in assay [1] turned out to be 8.3 µM (≈ 3.33 µg/mL); in assay [2], 20 µM (≈ 8.02 µg/mL).
With `COc1cc(Cc2cnc(N)nc2N)cc(OC)c1OC` [TRIMETHOPRIM], the MIC worked out at 55.1 µM (≈ 16 µg/mL) in assay [1] and 22.7 µM (≈ 6.59 µg/mL) in assay [2].
